The nature of data set [1]: Molar enthalpy of transition or fusion. To be noted: Crystal; DSC.
For data set [2] the following is noted: Crystal; DTA.

Numbers after ± are expanded uncertainties.

On to `O=c1c(-c2ccc(O)cc2)coc2cc(O)ccc12` [daidzein], for which the “Molar enthalpy of transition or fusion” value in data set [1] is 8.38 ± 0.234 kcal/mol. Moreover, in data set [2], the Normal melting temperature stood at 315.67 ± 0.5 °C.

Values taken from the NIST ThermoML archive (doi:10.1016/j.fluid.2013.12.024).
